# How the values were obtained:
# [1] = biological target: Substance-P receptor (rabbit); experiment: In vitro binding affinity towards Tachykinin receptor 1 to displace [3H][Sar9Met(O2)11]-SP (1 nM) binding to rabbit whole brain membranes
# [2] = biological target: Substance-P receptor (rabbit); experiment: as above; remark: listed apart in the source
SMILES,Ki [1] [µM],IC50 [2] [µM]
COc1ccccc1CNC(=S)N1CCC[C@H]1C(=O)N[C@H](Cc1ccccc1)C(=O)N(C)Cc1ccccc1,1.28,–
COc1ccccc1CNC(=S)N1CCC[C@H]1C(=O)N[C@@H](Cc1ccccc1)C(=O)N(C)Cc1ccccc1,0.26,–
COc1ccccc1CNC(=NC#N)N1CCC[C@H]1C(=O)NC(c1ccccc1)c1ccccc1 [1-[N-(2-Methoxy-benzyl)-N'-cyano-carbamimidoyl]-pyrrolidine-2-carboxylic acid benzhydryl-amide],–,> 50
COc1ccccc1CNC(=S)N1CCC[C@@H]1C(=O)NC(c1ccccc1)c1ccccc1 [(R)-1-(2-Methoxy-benzylthiocarbamoyl)-pyrrolidine-2-carboxylic acid benzhydryl-amide],–,> 5
Nc1ccccc1CNC(=S)N1CCC[C@H]1C(=O)NC(c1ccccc1)c1ccccc1 [(S)-1-(2-Amino-benzylthiocarbamoyl)-pyrrolidine-2-carboxylic acid benzhydryl-amide],–,> 50
O=C(NC(c1ccccc1)c1ccccc1)[C@@H]1CCCN1C(=S)NCc1ccccc1Br [(S)-1-(2-Bromo-benzylthiocarbamoyl)-pyrrolidine-2-carboxylic acid benzhydryl-amide],0.17,–
O=C(NC(c1ccccc1)c1ccccc1)[C@@H]1CCCN1C(=S)NCc1ccccc1Cl [(S)-1-(2-Chloro-benzylthiocarbamoyl)-pyrrolidine-2-carboxylic acid benzhydryl-amide],0.17,–
O=C(NC(c1ccccc1)c1ccccc1)[C@@H]1CCCN1C(=S)NCc1ccccc1F [(S)-1-(2-Fluoro-benzylthiocarbamoyl)-pyrrolidine-2-carboxylic acid benzhydryl-amide],1.27,–
"COc1ccccc1CNC(=S)N1CCC[C@H]1C(=O)NCC(c1ccccc1)c1ccccc1 [(S)-1-(2-Methoxy-benzylthiocarbamoyl)-pyrrolidine-2-carboxylic acid (2,2-diphenyl-ethyl)-amide]",–,> 5
COc1ccccc1CNC(=S)N1CCC[C@H]1C(=O)NC(c1ccccc1)c1ccccc1 [(S)-1-(2-Methoxy-benzylthiocarbamoyl)-pyrrolidine-2-carboxylic acid benzhydryl-amide],0.33,–
COc1ccccc1CNC(=S)N1CCC[C@H]1C(=O)N(Cc1ccccc1)Cc1ccccc1 [(S)-1-(2-Methoxy-benzylthiocarbamoyl)-pyrrolidine-2-carboxylic acid dibenzylamide],–,> 50
O=C(NC(c1ccccc1)c1ccccc1)[C@@H]1CCCN1C(=S)NCc1ccccc1 [(S)-1-Benzylthiocarbamoyl-pyrrolidine-2-carboxylic acid benzhydryl-amide],–,> 5
COc1ccccc1COC(=O)N1CCC[C@H]1C(=O)NC(c1ccccc1)c1ccccc1 [(S)-2-(Benzhydryl-carbamoyl)-pyrrolidine-1-carboxylic acid 2-methoxy-benzyl ester],–,> 50
